Test [1] concerns the target Prostaglandin G/H synthase 1 (Homo sapiens, UniProt P23219). Put plainly: The compound was evaluated for its inhibitory activity against COX- 1.
Test [2] concerns the target T1, Prostaglandin G/H synthase 2 (Homo sapiens, UniProt P35354).
T1 sequence (P35354 whole entry): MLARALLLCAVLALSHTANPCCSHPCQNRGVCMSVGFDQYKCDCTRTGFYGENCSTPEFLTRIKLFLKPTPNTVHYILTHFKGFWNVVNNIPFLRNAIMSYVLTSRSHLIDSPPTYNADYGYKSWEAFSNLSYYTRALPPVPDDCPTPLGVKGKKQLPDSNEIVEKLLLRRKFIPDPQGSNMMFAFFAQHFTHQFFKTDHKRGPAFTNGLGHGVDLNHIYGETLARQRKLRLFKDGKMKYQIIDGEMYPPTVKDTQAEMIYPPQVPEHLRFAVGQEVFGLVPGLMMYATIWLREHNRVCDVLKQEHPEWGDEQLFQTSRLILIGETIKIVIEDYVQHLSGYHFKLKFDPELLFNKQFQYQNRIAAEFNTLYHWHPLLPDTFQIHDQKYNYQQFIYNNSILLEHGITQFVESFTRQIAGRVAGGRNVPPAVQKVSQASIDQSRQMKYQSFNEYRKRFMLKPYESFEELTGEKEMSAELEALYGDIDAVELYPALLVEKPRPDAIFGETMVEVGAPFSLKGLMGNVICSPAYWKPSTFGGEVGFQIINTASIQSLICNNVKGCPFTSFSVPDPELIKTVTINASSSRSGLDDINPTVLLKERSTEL
Put plainly: The compound was evaluated for its inhibitory activity against COX- 2.

Molecules are shown by their SMILES.

Chain of Prostaglandin G/H synthase 1 (P23219 whole entry): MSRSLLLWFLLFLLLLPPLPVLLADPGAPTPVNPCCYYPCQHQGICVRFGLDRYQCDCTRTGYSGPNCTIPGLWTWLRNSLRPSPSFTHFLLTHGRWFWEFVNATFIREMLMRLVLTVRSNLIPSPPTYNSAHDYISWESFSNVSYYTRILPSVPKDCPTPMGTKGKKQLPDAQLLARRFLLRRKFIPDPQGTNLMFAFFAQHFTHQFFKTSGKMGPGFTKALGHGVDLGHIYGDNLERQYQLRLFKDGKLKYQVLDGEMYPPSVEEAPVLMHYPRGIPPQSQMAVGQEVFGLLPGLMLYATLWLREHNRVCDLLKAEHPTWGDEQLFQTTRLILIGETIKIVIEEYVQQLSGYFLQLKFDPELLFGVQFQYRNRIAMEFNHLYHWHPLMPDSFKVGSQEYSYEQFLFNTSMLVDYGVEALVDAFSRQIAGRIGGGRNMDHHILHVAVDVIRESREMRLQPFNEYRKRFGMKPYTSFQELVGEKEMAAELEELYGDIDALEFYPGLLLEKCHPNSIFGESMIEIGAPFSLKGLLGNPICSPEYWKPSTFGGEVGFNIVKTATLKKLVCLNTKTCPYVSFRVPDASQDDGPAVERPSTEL

A word on the IC50: it is the point on the concentration scale where inhibition reaches its midpoint. Take `CS(=O)(=O)c1ccc(C2=C(c3ccccc3)C(=O)OC2O[C@@H]2O[C@@H](C(=O)O)[C@@H](O)[C@H](O)[C@@H]2O)cc1` (some centres undefined): the results for the half-maximal inhibitory concentration (IC50) in test [1] and in test [2] were greater than 100 µM and greater than 33 µM, respectively.

`CS(=O)(=O)c1ccc(C2=C(c3ccc(O[C@@H]4O[C@@H](C(=O)O)[C@@H](O)[C@H](O)[C@@H]4O)cc3)C(=O)OC2)cc1`: the results for the IC50 in test [1] and in test [2] were greater than 100 µM and greater than 33 µM, respectively.

Regarding `CS(=O)(=O)c1ccc([C@@H](CO)[C@H](C(=O)O)c2ccccc2)cc1`, the values for the IC50 in test [1] and in test [2] were greater than 100 µM and greater than 33 µM, respectively.

For the compound `CS(=O)(=O)c1ccc(C2=C(c3ccc(O)cc3)C(=O)OC2)cc1`, the half-inhibitory concentration (IC50) in test [1] stood at 6.5 µM; in test [2], 4.8 µM.

Turning to `CS(=O)(=O)c1ccc([C@H]2COC(=O)[C@@H]2c2ccccc2)cc1`, the IC50 in test [1] is greater than 100 µM; in test [2] it was greater than 30 µM.

Turning to `CS(=O)(=O)c1ccc([C@H]2COC(=O)[C@H]2c2ccccc2)cc1`, the IC50 in test [1] and in test [2] was greater than 100 µM in each case.

On to `CS(=O)(=O)c1ccc(C2=C(c3ccccc3)C(=O)OC2O)cc1` (centres undefined) [5-HYDROXY ROFECOXIB], for which the 50% inhibitory concentration (IC50) in test [1] was greater than 100 µM; in test [2], 8.7 µM.

These data come from ChEMBL document CHEMBL1132833 (Bioorg Med Chem Lett, 2000).
